Experimental data as given in PubChem BioAssay (NCI).
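Where inhibition never reached the appropriate level, the endpoint shown equals the highest concentration tested. Otherwise, values were interpolated linearly from a five-concentration, 48-hour dose response in 96-well plates. Definition used: TGI = concentration required for complete inhibition of growth.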

What was measured:
Assay in all cases: inhibition of tumour cell growth, NCI panel, 48 h
786-0 renal = test system: 786-0 renal
A498 renal = test system: A498 renal
A549 NSCLC = test system: A549 NSCLC
ACHN renal = test system: ACHN renal
CAKI-1 renal = test system: CAKI-1 renal
CCRF-CEM leukemia = test system: CCRF-CEM leukemia
COLO 205 colon = test system: COLO 205 colon
DLD-1 colon = test system: DLD-1 colon
DMS 114 small cell lung = test system: DMS 114 small cell lung
DMS 273 small cell lung = test system: DMS 273 small cell lung
EKVX NSCLC = test system: EKVX NSCLC
HCC-2998 colon = test system: HCC-2998 colon
HCT-116 colon = test system: HCT-116 colon
HCT-15 colon = test system: HCT-15 colon
HL-60(TB) leukemia = test system: HL-60(TB) leukemia
HOP-62 NSCLC = test system: HOP-62 NSCLC
HOP-92 NSCLC = test system: HOP-92 NSCLC
HT29 colon = test system: HT29 colon
IGROV1 ovarian = test system: IGROV1 ovarian
K-562 leukemia = test system: K-562 leukemia
KM12 colon = test system: KM12 colon
LOX IMVI melanoma = test system: LOX IMVI melanoma
LXFL 529 NSCLC = test system: LXFL 529 NSCLC
M14 melanoma = test system: M14 melanoma
M19-MEL melanoma = test system: M19-MEL melanoma
MALME-3M melanoma = test system: MALME-3M melanoma
MOLT-4 leukemia = test system: MOLT-4 leukemia
NCI-H23 lung = test system: NCI-H23 lung
NCI-H460 lung = test system: NCI-H460 lung
NCI-H522 lung = test system: NCI-H522 lung
OVCAR-3 ovarian = test system: OVCAR-3 ovarian
OVCAR-4 ovarian = test system: OVCAR-4 ovarian
OVCAR-5 ovarian = test system: OVCAR-5 ovarian
OVCAR-8 ovarian = test system: OVCAR-8 ovarian
RPMI-8226 leukemia = test system: RPMI-8226 leukemia
RXF 393 renal = test system: RXF 393 renal
SF-268 CNS = test system: SF-268 CNS
SF-295 CNS = test system: SF-295 CNS
SF-539 CNS = test system: SF-539 CNS
SK-MEL-2 melanoma = test system: SK-MEL-2 melanoma
SK-MEL-28 melanoma = test system: SK-MEL-28 melanoma
SK-MEL-5 melanoma = test system: SK-MEL-5 melanoma
SK-OV-3 ovarian = test system: SK-OV-3 ovarian
SN12C renal = test system: SN12C renal
SNB-19 CNS = test system: SNB-19 CNS
SNB-75 CNS = test system: SNB-75 CNS
SNB-78 CNS = test system: SNB-78 CNS
SW-620 colon = test system: SW-620 colon
TK-10 renal = test system: TK-10 renal
U251 CNS = test system: U251 CNS
UACC-257 melanoma = test system: UACC-257 melanoma
UACC-62 melanoma = test system: UACC-62 melanoma
UO-31 renal = test system: UO-31 renal
XF 498 CNS = test system: XF 498 CNS
KM20L2 colon = test system: KM20L2 colon
NCI-H226 lung = test system: NCI-H226 lung
SR leukemia = test system: SR leukemia
BT-549 breast = test system: BT-549 breast
DU-145 prostate = test system: DU-145 prostate
HS 578T breast = test system: HS 578T breast
MCF7 breast = test system: MCF7 breast
MDA-MB-231 breast = test system: MDA-MB-231 breast
MDA-MB-435 = test system: MDA-MB-435
MDA-N = test system: MDA-N
NCI/ADR-RES ovarian = test system: NCI/ADR-RES ovarian
PC-3 prostate = test system: PC-3 prostate
T-47D breast = test system: T-47D breast

`COC(=O)C1CC2CC(=NNC(N)=O)CC2C1` (configuration not stated) gave a TGI (786-0 renal) of over 100 µM, a TGI (A498 renal) of over 100 µM and a TGI (A549 NSCLC) of over 100 µM. The TGI (ACHN renal) was over 100 µM, the TGI (CAKI-1 renal) was over 100 µM and the TGI (CCRF-CEM leukemia) was over 100 µM. It also gave a TGI (COLO 205 colon) of over 100 µM, a TGI (DLD-1 colon) of over 100 µM and a TGI (DMS 114 small cell lung) of over 100 µM. The TGI (DMS 273 small cell lung) was over 100 µM, the TGI (EKVX NSCLC) was over 100 µM and the TGI (HCC-2998 colon) was over 100 µM. For the same compound, the TGI (HCT-116 colon) was over 100 µM, the TGI (HCT-15 colon) was over 100 µM and the TGI (HL-60(TB) leukemia) was over 100 µM. It also gave a TGI (HOP-62 NSCLC) of over 100 µM, a TGI (HOP-92 NSCLC) of over 100 µM and a TGI (HT29 colon) of over 100 µM. For the same compound, the TGI (IGROV1 ovarian) was over 100 µM, the TGI (K-562 leukemia) was over 100 µM and the TGI (KM12 colon) was over 100 µM. The TGI (LOX IMVI melanoma) was over 100 µM, the TGI (LXFL 529 NSCLC) was over 100 µM and the TGI (M14 melanoma) was over 100 µM. For the same compound, the TGI (M19-MEL melanoma) was over 100 µM, the TGI (MALME-3M melanoma) was over 100 µM and the TGI (MOLT-4 leukemia) was over 100 µM. The TGI (NCI-H23 lung) was over 100 µM, the TGI (NCI-H460 lung) was over 100 µM and the TGI (NCI-H522 lung) was over 100 µM. The TGI (OVCAR-3 ovarian) was over 100 µM, the TGI (OVCAR-4 ovarian) was over 100 µM and the TGI (OVCAR-5 ovarian) was over 100 µM. It also gave a TGI (OVCAR-8 ovarian) of over 100 µM, a TGI (RPMI-8226 leukemia) of over 100 µM and a TGI (RXF 393 renal) of over 100 µM. The TGI (SF-268 CNS) was over 100 µM, the TGI (SF-295 CNS) was over 100 µM and the TGI (SF-539 CNS) was over 100 µM. The TGI (SK-MEL-2 melanoma) was over 100 µM, the TGI (SK-MEL-28 melanoma) was over 100 µM and the TGI (SK-MEL-5 melanoma) was over 100 µM. For the same compound, the TGI (SK-OV-3 ovarian) was over 100 µM, the TGI (SN12C renal) was over 100 µM and the TGI (SNB-19 CNS) was over 100 µM. For the same compound, the TGI (SNB-75 CNS) was over 100 µM, the TGI (SNB-78 CNS) was over 100 µM and the TGI (SW-620 colon) was over 100 µM. The TGI (TK-10 renal) was over 100 µM, the TGI (U251 CNS) was over 100 µM and the TGI (UACC-257 melanoma) was over 100 µM. For the same compound, the TGI (UACC-62 melanoma) was over 100 µM, the TGI (UO-31 renal) was over 100 µM and the TGI (XF 498 CNS) was over 100 µM.

For `O=C1OC(Cc2ccccc2)(N2CCCC2=O)C1c1ccccc1` (configuration not stated), the TGI (786-0 renal) was over 100 µM, the TGI (A498 renal) was over 100 µM and the TGI (A549 NSCLC) was over 100 µM. It also gave a TGI (ACHN renal) of over 100 µM, a TGI (CAKI-1 renal) of over 100 µM and a TGI (CCRF-CEM leukemia) of over 100 µM. The TGI (COLO 205 colon) was over 100 µM, the TGI (DLD-1 colon) was over 100 µM and the TGI (DMS 114 small cell lung) was 81 µM. It also gave a TGI (EKVX NSCLC) of over 100 µM, a TGI (HCT-116 colon) of over 100 µM and a TGI (HL-60(TB) leukemia) of over 100 µM. It also gave a TGI (HOP-62 NSCLC) of over 100 µM, a TGI (HOP-92 NSCLC) of over 100 µM and a TGI (HT29 colon) of over 100 µM. The TGI (K-562 leukemia) was over 100 µM, the TGI (KM12 colon) was over 100 µM and the TGI (KM20L2 colon) was over 100 µM. It also gave a TGI (LXFL 529 NSCLC) of over 100 µM, a TGI (M14 melanoma) of over 100 µM and a TGI (M19-MEL melanoma) of over 100 µM. It also gave a TGI (MALME-3M melanoma) of over 100 µM, a TGI (MOLT-4 leukemia) of over 100 µM and a TGI (NCI-H226 lung) of over 100 µM. For the same compound, the TGI (NCI-H23 lung) was over 100 µM, the TGI (NCI-H460 lung) was over 100 µM and the TGI (NCI-H522 lung) was over 100 µM. It also gave a TGI (OVCAR-3 ovarian) of over 100 µM, a TGI (OVCAR-4 ovarian) of over 100 µM and a TGI (OVCAR-5 ovarian) of over 100 µM. The TGI (OVCAR-8 ovarian) was over 100 µM, the TGI (RPMI-8226 leukemia) was over 100 µM and the TGI (SF-268 CNS) was over 100 µM. It also gave a TGI (SF-295 CNS) of over 100 µM, a TGI (SK-MEL-2 melanoma) of over 100 µM and a TGI (SK-MEL-28 melanoma) of over 100 µM. It also gave a TGI (SK-MEL-5 melanoma) of over 100 µM, a TGI (SK-OV-3 ovarian) of over 100 µM and a TGI (SN12C renal) of over 100 µM. It also gave a TGI (SNB-19 CNS) of over 100 µM, a TGI (SNB-75 CNS) of over 100 µM and a TGI (SNB-78 CNS) of over 100 µM. The TGI (SR leukemia) was over 100 µM, the TGI (SW-620 colon) was over 100 µM and the TGI (TK-10 renal) was over 100 µM. The TGI (U251 CNS) was over 100 µM, the TGI (UACC-257 melanoma) was over 100 µM and the TGI (UACC-62 melanoma) was over 100 µM. The TGI (UO-31 renal) was over 100 µM and the TGI (XF 498 CNS) was 88.5 µM.

`NCCSS(=O)(=O)CCN` showed a TGI (786-0 renal) of over 100 µM, a TGI (A498 renal) of over 100 µM and a TGI (A549 NSCLC) of over 100 µM. The TGI (ACHN renal) was over 100 µM, the TGI (BT-549 breast) was over 100 µM and the TGI (CAKI-1 renal) was over 100 µM. The TGI (CCRF-CEM leukemia) was over 100 µM, the TGI (COLO 205 colon) was over 100 µM and the TGI (DU-145 prostate) was over 100 µM. For the same compound, the TGI (EKVX NSCLC) was over 100 µM, the TGI (HCC-2998 colon) was over 100 µM and the TGI (HCT-116 colon) was over 100 µM. It also gave a TGI (HCT-15 colon) of over 100 µM, a TGI (HL-60(TB) leukemia) of over 100 µM and a TGI (HOP-62 NSCLC) of over 100 µM. For the same compound, the TGI (HOP-92 NSCLC) was over 100 µM, the TGI (HS 578T breast) was over 100 µM and the TGI (HT29 colon) was over 100 µM. The TGI (IGROV1 ovarian) was over 100 µM, the TGI (K-562 leukemia) was over 100 µM and the TGI (KM12 colon) was over 100 µM. For the same compound, the TGI (LOX IMVI melanoma) was over 100 µM, the TGI (M14 melanoma) was over 100 µM and the TGI (MALME-3M melanoma) was over 100 µM. The TGI (MCF7 breast) was over 100 µM, the TGI (MDA-MB-231 breast) was over 100 µM and the TGI (MDA-MB-435) was over 100 µM. For the same compound, the TGI (MDA-N) was over 100 µM, the TGI (MOLT-4 leukemia) was over 100 µM and the TGI (NCI-H226 lung) was over 100 µM. The TGI (NCI-H23 lung) was over 100 µM, the TGI (NCI-H460 lung) was over 100 µM and the TGI (NCI-H522 lung) was over 100 µM. It also gave a TGI (NCI/ADR-RES ovarian) of over 100 µM, a TGI (OVCAR-3 ovarian) of over 100 µM and a TGI (OVCAR-4 ovarian) of over 100 µM. For the same compound, the TGI (OVCAR-5 ovarian) was over 100 µM, the TGI (OVCAR-8 ovarian) was over 100 µM and the TGI (PC-3 prostate) was over 100 µM. It also gave a TGI (RPMI-8226 leukemia) of over 100 µM, a TGI (RXF 393 renal) of over 100 µM and a TGI (SF-268 CNS) of over 100 µM. For the same compound, the TGI (SF-295 CNS) was over 100 µM, the TGI (SF-539 CNS) was over 100 µM and the TGI (SK-MEL-2 melanoma) was over 100 µM. For the same compound, the TGI (SK-MEL-28 melanoma) was over 100 µM, the TGI (SK-MEL-5 melanoma) was over 100 µM and the TGI (SK-OV-3 ovarian) was over 100 µM. It also gave a TGI (SN12C renal) of over 100 µM, a TGI (SNB-19 CNS) of over 100 µM and a TGI (SNB-75 CNS) of over 100 µM. The TGI (SR leukemia) was over 100 µM, the TGI (SW-620 colon) was over 100 µM and the TGI (T-47D breast) was over 100 µM. It also gave a TGI (TK-10 renal) of over 100 µM, a TGI (U251 CNS) of over 100 µM and a TGI (UACC-62 melanoma) of over 100 µM. The TGI (UO-31 renal) was over 100 µM.
